Source: US10806121B2, “Animal litter containing a pheromone composition” (Sergeant's Pet Care Products, LLC, priority 2014, dated 2020)

Columns and labels:
cats [1] = assay: Example 6: animal litter composition with molded particles for use with cats; format: in vivo; settings: animal litter composition comprising about 0.0004% to about 0.0006% (w/w) 2-methylbut-2-enal; most evident in the first 6-8 hours
From the text: An animal litter composition comprising a pheromone composition can be prepared by first forming molded particles from a shaped polymeric matrix prepared in accordance with Example 4 or 5, wherein the molded particles comprise a pheromone composition comprising 2-methylbut-2-enal. The molded particles can then be combined with, mixed into, or otherwise incorporated into litter material upon use of the litter. An animal litter composition of about 2 lbs. to about 6 lbs. will comprise between about 0.01% and about 15% (w/w) molded particles (the molded particles comprising about 0.02% (w/w) 2-methylbut-2-enal) in order to be effective in alleviating litter dominant behavior and associated aggression and anxiety in cats exposed to the pheromone composition as released from the litter. For example, an animal litter comprising about 2% to about 3% molded particles will result in the litter comprising between about 0.0004% (w/w) and about 0.0006% (w/w) 2-methylbut-2-enal. Accordingly, it will be observed that an animal litter composition comprising about 0.0004% to about 0.0006% (w/w) 2-methylbut-2-enal will elicit a positive behavior modification in cats, which behavior modification can last at least 24 hours, and is most evident in the first 6-8 hours following exposure of the animal to the animal litter composition.

cats [2] = assay: Study 3: 24-hour behavior of the most aggressive intact male cat pairs, CON litter versus RP litter; format: in vivo
Experimental: During the studies, cat behavior was captured on video for the duration of the 24- or 48-hour period depending on the specific study. Red lights were used at night to allow for continuous observation. A scan sampling method was used to record cat behaviors each 5 minutes. The recorded videos were subsequently reviewed and analyzed in each 5-minute scan sample, with tape playing 30 frames per second. At each 5-minute time point, each cat was categorized as anxious or relaxed. Aggression or litter box usage occurred between 5-minute periods were also noted. Because each scan sample is of 5-minute period, a total of 24 observations for each individual behavior are possible for each 2 hours. The instances of an individual behavior (An; n=1, 2, 3, . . . 24) in each 5-minute period were totaled for instances in each 2 hours (Bm=ΣAn, n=1, 2, 3, . . . 24; m=1, 2, 3, . . . 12) over 24 hours. The behavioral score for each 2-hour period is ΣAn/24 (n=1, 2, 3, . . . , 24). A behavioral score for a 24-hour period is ΣBm/12 (m=1, 2, 3, . . . 12). Among all behavior assessed, aggression, in-litter-box and anxiety were scored as yes or no during each 5 minutes (An=1 or 0; n=1, 2, 3, . . . 24). In addition, anxiety was measured as a percentage of the total time that the cat was experiencing anxiety. As such the anxiety related behavioral score for a 24-hour period is 0.347×ΣBm (%) (Bm=ΣAn(%), n=1, 2, 3, . . . 24; m=1, 2, 3, . . . 12), which reflects the percentage of time over 24 hours that the cats are experiencing anxiety. Moreover, when ranking cat pairs based on their level of aggression, the sum of the aggression scores of the individual cats in the pair was used to rank the cat pairs. Behavior data (behavioral scores) were further analyzed by Least Squares Analysis of variance using SAS (2011, SAS Inst., Inc., Cary, N.C.) software and the p-diff general linear model procedures to assess treatment differences within each time period. This statistical model included effects of treatment (TRT), cat-pair within treatment (TRT*CAT), time (HR), treatment by time (TRT*HR) and residual error (SE; used to test remaining effects). The most aggressive eight pairs of intact male cats from study 2 (Table, the pairs ranked 1 and 2-9) were selected for this 24-hour study, which was designed to assess if and how 2-methylbut-2-enal containing cat litter affects the multiple cats placed in one single room. Between studies 2 and 3, cat pairs had been separated for at least 12 weeks. Control (CON) litter and rabbit pheromone (RP) litter were similarly prepared as illustrated in Study 2. Each pair of cats was placed in a kennel containing one food dish, one water dish, and one litter box. Food and water was available ad libitum during the study. […] Side fences were chain linked. A total of 4 kennels were placed in one single room, and two rooms were utilized for eight pairs of cats. Cat behaviors were captured on video for the duration of the 24-hour period. Red lights were used at night to allow for continuous observation. The study schedule was as follows: • (1) 0 hour—Add 3 lb. aliquot of CON litter to a clean litter box and weigh the litter box; place a CON litter box in each of the 4 kennels in Room One. Before placing a designated cat pair in each of the kennels, weigh the cats. Start the video taping. • (2) 0 hour—Add 3 lb. aliquot of RP litter to a clean litter box and weigh; place RP litter boxes in 4 kennels in a separate Room Two; weigh cats; place designated pairs in kennels; and start the video taping. • (3) 24-hour—Remove and weigh all litter boxes; weigh all cats. Video records were obtained and reviewed for summary and analyses. At the 24-hour point of time, it was noted if any soiling had occurred outside of the litter box. Any social behavioral problems of the cats were also manually recorded, despite that video records provided a much more precise record of cat behaviors. Cat behavior of each pair was captured on video for the duration of the 24-hour period. […]

## C/C=C(\C)C=O [RP, 2-methylbut-2-enal]
Cats [1]
  duration of positive behavior modification in cats: at least 24 hours
Cats [2]; 0-2 hour period, CON litter 25%, P<0.01
  aggression away from litter box, % of the observations: 5-6%
Cats [2]; 0-2 hour period, CON litter more than 40%, P<0.01
  aggression near litter box, % of the observations: 2-3%
Cats [2]; 2-4 hour period, CON litter 23-24%, P<0.01
  aggression away from litter box, % of the observations: 4%
Cats [2]; 6-8 hour period, P=0.07
  lying/sitting - touching versus CON litter: tendency to sit or lie in contact
Cats [2]; 8-10 hour period, P=0.06
  anxiety versus CON litter: tendency to be more anxious
Cats [2]; 8-10 hour period, P=0.10
  litter box use versus CON litter: tended to use the litter box more often
Cats [2]; 10-12 hour period, P<0.01
  anxiety versus CON litter: significantly more anxious
  neutral social interaction versus CON litter: significantly more neutral (non-aggressive) social interactions
Cats [2]; 12-14 hour period, P<0.01
  litter box use versus CON litter: Cats experiencing CON litter used the litter box significantly more
Cats [2]; 14-16 hour period, P=0.01
  anxiety versus CON litter: significantly more anxious
Cats [2]; 16-18 hour period, P=0.03
  anxiety versus CON litter: significantly more anxious
Cats [2]; 16-18 hour period, P=0.05
  lying/sitting - touching versus CON litter: tended to sit or lie in contact less
Cats [2]; 18-20 hour period, P=0.03
  anxiety versus CON litter: significantly more anxious
  litter box use versus CON litter: Cats experiencing CON litter used the litter box significantly more
Cats [2]; 20-22 hour period, P=0.01
  lying/sitting - touching versus CON litter: significantly higher
Cats [2]; 22-24 hr period, P=0.04
  lying/sitting - touching versus CON litter: tended to sit or lie in contact less
Cats [2]; RP in the litter around 0.0004% to 0.0006% (w/w)
  duration of aggression control: 6 to 8 h
Cats [2]; RP litter (3% (w/w) beads with 0.02% (w/w) 2-methylbut-2-enal), 24 hours, 4 cat pairs, CON 0.85, TRT P-Value 0.16
  Behavior score: Head in food/H2O dish: 0.57
Cats [2]; RP litter, 24 hours, 4 cat pairs, CON 0.03, TRT P-Value 0.36
  Behavior score: Grooming other: 0.00
Cats [2]; RP litter, 24 hours, 4 cat pairs, CON 0.10, TRT P-Value 0.82
  Behavior score: Neutral social interaction: 0.14
Cats [2]; RP litter, 24 hours, 4 cat pairs, CON 0.31, TRT P-Value 0.23
  Behavior score: In litter box - using: 0.20
Cats [2]; RP litter, 24 hours, 4 cat pairs, CON 0.56, TRT P-Value 0.90
  Behavior score: Grooming self: 0.52
Cats [2]; RP litter, 24 hours, 4 cat pairs, CON 0.73, TRT P-Value 0.92
  Behavior score: Lying/sitting - touching: 0.64
Cats [2]; RP litter, 24 hours, 4 cat pairs, CON 0.84, TRT P-Value 0.89
  Behavior score: Play: 0.92
Cats [2]; RP litter, 24 hours, 4 cat pairs, CON 0.95, TRT P-Value 0.59
  Behavior score: Sleeping: 0.63
Cats [2]; RP litter, 24 hours, 4 cat pairs, CON 1.63, TRT P-Value 0.74
  Behavior score: In litter box - not using: 2.34
Cats [2]; RP litter, 24 hours, 4 cat pairs, CON 3.55, TRT P-Value 0.37
  Behavior score: Aggression: 2.01
Cats [2]; RP litter, 24 hours, 4 cat pairs, CON 5.50, TRT P-Value 0.52
  Behavior score: Locomotion: 4.34
Cats [2]; RP litter, 24 hours, 4 cat pairs, CON 14.98, TRT P-Value 0.79
  Behavior score: Lying/sitting - not touching: 15.53
Cats [2]; RP litter, 24 hours, 4 cat pairs, CON 17.00, TRT P-Value 0.56
  Behavior score: Anxiety (%): 25.00%
Cats [2]; RP litter, CON cats 0.15 kg, SE=0.02 kg, change not significant, litter spilled
  weight added to litter box: 0.07 kg/day
Cats [2]; RP versus CON litter, all behaviors of Table 10
  overall RP treatment effect on behaviors over the full 24 hours: None of the behaviors evaluated over the full 24 hours were significantly changed
Cats [2]; first 2 hour period, P=0.04
  anxiety versus CON litter: significantly less anxious
Cats [2]; first 6 hours after cats were placed together, P<0.01
  aggression patterns versus CON litter: significantly lower
